The numbers were not newly measured in article PMC6222829, “Synthesis, Molecular Docking and Anticancer Activity of Diflunisal Derivatives as Cyclooxygenase Enzyme Inhibitors” (Molecules : A Journal of Synthetic Chemistry and Natural …, 2018), which cites them from elsewhere.

Usually IC50 stands for the concentration that inhibits the measured activity by half.

Among the test systems are T47D cell line; PC-3 cell line; HCT116 cell line.
Holding throughout (design): method as in PMID 20658169, PMID 26580554
What all share (settings): literature value ref 42,43; cited from earlier work

Take `N.N.[Cl][Pt][Cl]` [Cisplatin]: the concentration for half-maximal inhibition (IC50) was 836 nM in the data set with T47D cell line, 39900 nM with PC-3 cell line and 1250 nM in the data set on HCT116 cell line.
